Test results published in ChEMBL document CHEMBL4340552, “Identification of BMI1 promoter inhibitors from Streptomyces sp. IFM-11958” (Bioorg Med Chem, 2019).

Columns and labels:
[1] = Inhibition of BMI1 promoter in HEK293T cells incubated for 24 hrs by luciferase reporter gene assay; type: cell-based; conditions: Homo sapiens, HEK-293T
DU-145 [2] = experiment: Down-regulation of BMI1 protein expression in human DU145 cells incubated for 24 hrs by Western blot analysis; type: functional, cell-based
Huh-7 [3] = experiment: Inhibition of sphere formation in human HuH7 cells incubated for 72 hrs by sphere forming assay; type: functional, cell-based
Huh-7 [4] = experiment: Cytotoxicity against human HuH7 cells assessed as reduction in cell viability incubated for 24 hrs by FMCA method; type: functional, cell-based; conditions: Huh-7, 24 h
DU-145 [5] = experiment: Up-regulation of p16Ink4a mRNA expression in human DU145 cells incubated for 24 hrs by Quantitative RT-PCR analysis; type: functional, cell-based
HEK293 = experiment: Cytotoxicity against HEK293 cells assessed as reduction in cell viability incubated for 24 hrs by FMCA method; type: cell-based; conditions: Homo sapiens, HEK293, 24 h
DU-145 [6] = experiment: Cytotoxicity against human DU145 cells assessed as reduction in cell viability incubated for 24 hrs by FMCA method; type: functional, cell-based; conditions: DU-145, 24 h
DU-145 [7] = experiment: Down-regulation of BMI1 mRNA expression in human DU145 cells incubated for 24 hrs by Quantitative RT-PCR analysis; type: functional, cell-based
DU-145 [8] = experiment: Down-regulation of c-Myc protein expression in human DU145 cells incubated for 24 hrs by Western blot analysis; type: functional, cell-based

Row | SMILES | IC50 [1] | inhibition (DU-145 [2]) | inhibition (Huh-7 [3]) | IC50 (Huh-7 [4]) | Activity (DU-145 [5]) | IC50 (HEK293) | IC50 (DU-145 [6]) | Activity (DU-145 [7]) | inhibition (DU-145 [8])
1 | O=C1CCC(=O)N(O)CCCCCNC(=O)CCC(=O)N(O)CCCCCNC(=O)CCC(=O)N(O)CCCCCN1 [NOCARDAMINE] | 22000 nM |  |  |  |  |  |  |  | 
2 | CC[C@@H]1[C@@H](C)O[C@@](O)([C@@H](C)[C@H](O)[C@H](C)[C@H]2OC(=O)/C=C/C=C/[C@H](C)[C@@H]([C@@H](C)[C@@H](O)[C@H](C)[C@@]3(O)C[C@@H](O[C@H]4C[C@H](O)[C@H](O)[C@H](C)O4)[C@H](CC)[C@@H](C)O3)OC(=O)/C=C/C=C/[C@@H]2C)C[C@H]1O[C@H]1C[C@H](O)[C@H](O)[C@H](C)O1 | 30 nM | Dose-dependent effect | Dose-dependent effect | 4.2 nM | Dose-dependent effect | 200 nM | 31 nM | Dose-dependent effect | Dose-dependent effect
3 | CC[C@@H]1[C@@H](C)O[C@@](O)([C@@H](C)[C@H](O)[C@H](C)[C@H]2OC(=O)/C=C/C=C/[C@H](C)[C@@H]([C@@H](C)[C@@H](O)[C@H](C)[C@@]3(O)C[C@@H](O[C@H]4C[C@H](O)[C@H](O)[C@H](C)O4)[C@H](CC)[C@@H](C)O3)OC(=O)/C(C)=C/C=C/[C@@H]2C)C[C@H]1O[C@H]1C[C@H](O)[C@H](O)[C@H](C)O1 | 447 nM |  |  |  |  |  |  |  | 
